Patent publication US20090226500A1, “SUTURES AND ANTI-SCARRING AGENTS” (Angiotech Pharmaceuticals, Inc, priority 2006, published 2009)
Where two headings read alike, the source gives them in different places.

Columns and labels:
[1] = tested on: TNFα production by THP-1 cells; assay: TNF-alpha production by macrophages; assay type: cell-based, human; settings: Homo sapiens; THP-1 cells stimulated with opsonized zymosan, 24 hours; read-out: IC50 TNFα production
In short: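 THP-1 cells (1×10^6 per well, 10% FCS) were stimulated with 1 mg/ml serum-opsonized zymosan and incubated with drug in triplicate for 24 h at 37 °C. TNFα in the supernatants was quantified by sandwich ELISA (HRP/TMB read-out) against a recombinant human TNFα standard curve.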

Smooth muscle cells = assay: Proliferation of smooth muscle cells; assay type: cell-based; settings: 72 hours, CYQUANT; read-out: IC50 proliferation of smooth muscle cells
In short: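 Smooth muscle cells at 600 cells/well, exposed to paclitaxel (DMSO stocks 10^−8 to 10^−2 M) in triplicate for 72 h at 37 °C. Proliferation read with CyQUANT GR dye in lysis buffer.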

[2] = tested on: IL-1β production by THP-1 cells; assay: IL-1β production by macrophages; assay type: cell-based, human; settings: Homo sapiens, read-out: IC50 IL-1β production
[3] = tested on: IL-8 production by THP-1 cells; assay: IL-8 production by macrophages; assay type: cell-based, human; settings: Homo sapiens, read-out: IC50 IL-8 production
Procedure: The human macrophage cell line, THP-1 was plated in a 12 well plate such that each well contains 1×10^6 cells in 2 ml of media containing 10% FCS. Opsonized zymosan was prepared by resuspending 20 mg of zymosan A in 2 ml of ddH2O and homogenizing until a uniform suspension was obtained. Homogenized zymosan was pelleted at 250 g, resuspended in 4 ml of human serum for a final concentration of 5 mg/ml, and incubated in a 37° C. water bath for 20 minutes to enable opsonization. Geldanamycin was prepared in DMSO at a concentration of 10^−2 M and serially diluted 10-fold to give a range of stock concentrations (10^−8 M to 10^−2 M).
THP-1 cells were stimulated to produce IL-8 by the addition of 1 mg/ml opsonized zymosan. Geldanamycin was added to THP-1 cells by directly adding DMSO stock solutions, prepared earlier, at a 1/1000 dilution, to each well. Each drug concentration was tested in triplicate wells. Plates were incubated at 37° C. for 24 hours.
After a 24-hour stimulation, supernatants were collected to quantify IL-8 production. IL-8 concentrations in the supernatants were determined by ELISA using recombinant human IL-8 to obtain a standard curve. A 96-well MAXISORB plate was coated with 100 μL of anti-human IL-8 Capture Antibody diluted in Coating Buffer (0.1M sodium carbonate pH 9.5) overnight at 4° C. The dilution of Capture Antibody used was lot-specific and was determined empirically. Capture antibody was then aspirated and the plate washed 3 times with Wash Buffer (PBS, 0.05% TWEEN-20). Plates were blocked for 1 hour at room temperature with 200 μL/well of Assay Diluent (PBS, 10% FCS pH 7.0). After blocking, plates were washed 3 times with Wash Buffer. Standards and sample dilutions were prepared as follows: (a) sample supernatants were diluted 1/100 and 1/1000; (b) recombinant human IL-8 was prepared at 200 pg/ml and serially diluted to yield as standard curve of 3.1 pg/ml to 200 pg/ml Sample supernatants and standards were assayed in triplicate and were incubated at room temperature for 2 hours after addition to the plate coated with Capture Antibody The plates were washed 5 times and incubated with 100 μL of Working Detector (biotinylated anti-human IL-8 detection antibody+avidin-HRP) for 1 hour at room temperature. Following this incubation, the plates were washed 7 times and 100 μL of Substrate Solution (Tetramethylbenzidine, H2O2) was added to plates and incubated for 30 minutes at room temperature. Stop Solution (2 NH2SO4) was then added to the wells and a yellow color reaction was read at 450 nm with A correction at 570 nm. Mean absorbance was determined from triplicate data readings and the mean background was subtracted. IL-8 concentration values were obtained from the standard curve. […] The IC50 values for the following additional compounds were determined using this assay: IC50 (nM): 17-AAG, 56; mycophenolic acid, 549; resveratrol, 507; rapamycin, 4; 41; SP600125, 344; halofuginone, 641; D-mannose-6-phosphate, 220; epirubicin hydrochloride, 654; topotemay, 257; mithramycin, 33; daunorubicin, 421; celastrol, 490; chromomycin A3, 36

[4] = THP-1 cells stimulated with opsonized zymosan, 24 hours

Compound | IC50 [1] [nM] | IC50 (Smooth muscle cells) [nM] | IC50 ([2]; THP-1, 24 h) [nM] | IC50 ([3]; THP-1, 24 h) [nM] | IC50 [2, 4] [nM] | IC50 [3, 4] [nM]
CC1=C(O)C(=O)C=C2C1=CC=C1[C@@]2(C)CC[C@@]2(C)[C@@H]3C[C@](C)(C(=O)O)CC[C@]3(C)CC[C@]12C [celastrol] | 87 | 493 | 23 | 490 | – | –
COc1c(C)c2c(c(O)c1C/C=C(\C)CCC(=O)O)C(=O)OC2 [mycophenolic acid] | 756 | 579 | – | – | 2890 | 549
